Results on 1 molecule are retold here after article PMC11731258, “The structural basis for high-affinity c-di-GMP binding to the GSPII-B domain of the traffic ATPase PilF from Thermus thermophilus” (The Journal of Biological Chemistry, 2024).

This assay has as its target T1, PilF159-302 (GSPII-B domain) (Thermus thermophilus, UniProt Q5SLC9).
T1 sequence (Q5SLC9 159-302): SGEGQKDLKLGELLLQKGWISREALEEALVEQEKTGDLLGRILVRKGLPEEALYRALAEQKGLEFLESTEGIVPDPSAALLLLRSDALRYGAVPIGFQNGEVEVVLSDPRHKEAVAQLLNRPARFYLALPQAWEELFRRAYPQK
Nature of the assay: ITC binding to PilF159-302. As to the method:
To assess the ligand-binding capabilities of the various PilF constructs, triplicates of ITC measurements were recorded for each construct. The measurements were carried out using a MicroCal ITC200 (Malvern Panalytical). […] All protein samples were extensively dialyzed against the sample buffer and the buffer used for dialysis was used to dilute protein and c-di-GMP samples in preparation for the ITC measurements. Each measurement was conducted using the following protocol. In total, 39.8 μl c-di-GMP were titrated to 270 μl protein in 20 separate injections in 180 s intervals with a stirring speed of 750 rpm. After an initial delay of 120 s, the first injection of 0.2 μl c-di-GMP with a duration of 0.4 s was followed by 19 injections of 2 μl with a duration of 4 s. During the measurement, the feedback mode was set to high and the reference power to 11 μcal s^−1. To optimize precision of the measurements, protein and c-di-GMP concentrations were adjusted to the binding capabilities of the respective constructs and ranged from 5 to 200 μM for protein and 50 to 2000 μM for c-di-GMP. All thermograms were processed using Origin 7.0 (OriginLab) using a one-site– or two-site–binding model dependent on the number of expected binding events.

In turn, `O=c1[nH]cnc2c1ncn2[C@@H]1O[C@@H]2COP(=O)(O)O[C@H]3[C@@H](O)[C@H](n4cnc5c(=O)[nH]cnc54)O[C@@H]3COP(=O)(O)O[C@H]2[C@H]1O` [c-di-IMP, cyclic dimeric inosine-monophosphate] showed a Kd of 60 ± 1 nM. For the same molecule, where the note is “ITC, 20 °C”, the N is listed as 0.74 ± 0.03, the ΔH was -7.103 ± 0.234 kcal/mol and the ΔS was 8.8 ± 0.8 cal/mol/deg.
